In ChEMBL document CHEMBL4028801, “A multifactorial approach to hepatobiliary transporter assessment enables improved therapeutic compound development” (Toxicol Sci, 2013):
Structures can show the parent of a compound that is named as a salt.

Tests used:
[1] = target: Bile salt export pump (Homo sapiens, UniProt O95342); assay: Inhibition of human BSEP overexpressed in Sf9 cell membrane vesicles assessed as uptake of [3H]-taurocholate in presence of ATP measured after 15 to 20 mins by membrane vesicle transport assay; format: ADME, cell-based
[2] = target: ATP-binding cassette sub-family C member 2 (Homo sapiens, UniProt Q92887); assay: Inhibition of human MRP2 overexpressed in Sf9 cell membrane vesicles assessed as uptake of [3H]-estradiol-17beta-D-glucuronide in presence of ATP and GSH measured after 20 mins by membrane vesicle transport assay
[3] = target: ATP-binding cassette sub-family C member 3 (Homo sapiens, UniProt O15438); assay: Inhibition of human MRP3 overexpressed in Sf9 insect cell membrane vesicles assessed as uptake of [3H]-estradiol-17beta-D-glucuronide in presence of ATP and GSH measured after 10 mins by membrane vesicle transport assay; format: ADME, cell-based
[4] = target: T1, ATP-binding cassette sub-family C member 4 (Homo sapiens, UniProt O15439); assay: Inhibition of human MRP4 overexpressed in Sf9 cell membrane vesicles assessed as uptake of [3H]-estradiol-17beta-D-glucuronide in presence of ATP and GSH measured after 20 mins by membrane vesicle transport assay; format: ADME, cell-based
T1 sequence (O15439 whole entry): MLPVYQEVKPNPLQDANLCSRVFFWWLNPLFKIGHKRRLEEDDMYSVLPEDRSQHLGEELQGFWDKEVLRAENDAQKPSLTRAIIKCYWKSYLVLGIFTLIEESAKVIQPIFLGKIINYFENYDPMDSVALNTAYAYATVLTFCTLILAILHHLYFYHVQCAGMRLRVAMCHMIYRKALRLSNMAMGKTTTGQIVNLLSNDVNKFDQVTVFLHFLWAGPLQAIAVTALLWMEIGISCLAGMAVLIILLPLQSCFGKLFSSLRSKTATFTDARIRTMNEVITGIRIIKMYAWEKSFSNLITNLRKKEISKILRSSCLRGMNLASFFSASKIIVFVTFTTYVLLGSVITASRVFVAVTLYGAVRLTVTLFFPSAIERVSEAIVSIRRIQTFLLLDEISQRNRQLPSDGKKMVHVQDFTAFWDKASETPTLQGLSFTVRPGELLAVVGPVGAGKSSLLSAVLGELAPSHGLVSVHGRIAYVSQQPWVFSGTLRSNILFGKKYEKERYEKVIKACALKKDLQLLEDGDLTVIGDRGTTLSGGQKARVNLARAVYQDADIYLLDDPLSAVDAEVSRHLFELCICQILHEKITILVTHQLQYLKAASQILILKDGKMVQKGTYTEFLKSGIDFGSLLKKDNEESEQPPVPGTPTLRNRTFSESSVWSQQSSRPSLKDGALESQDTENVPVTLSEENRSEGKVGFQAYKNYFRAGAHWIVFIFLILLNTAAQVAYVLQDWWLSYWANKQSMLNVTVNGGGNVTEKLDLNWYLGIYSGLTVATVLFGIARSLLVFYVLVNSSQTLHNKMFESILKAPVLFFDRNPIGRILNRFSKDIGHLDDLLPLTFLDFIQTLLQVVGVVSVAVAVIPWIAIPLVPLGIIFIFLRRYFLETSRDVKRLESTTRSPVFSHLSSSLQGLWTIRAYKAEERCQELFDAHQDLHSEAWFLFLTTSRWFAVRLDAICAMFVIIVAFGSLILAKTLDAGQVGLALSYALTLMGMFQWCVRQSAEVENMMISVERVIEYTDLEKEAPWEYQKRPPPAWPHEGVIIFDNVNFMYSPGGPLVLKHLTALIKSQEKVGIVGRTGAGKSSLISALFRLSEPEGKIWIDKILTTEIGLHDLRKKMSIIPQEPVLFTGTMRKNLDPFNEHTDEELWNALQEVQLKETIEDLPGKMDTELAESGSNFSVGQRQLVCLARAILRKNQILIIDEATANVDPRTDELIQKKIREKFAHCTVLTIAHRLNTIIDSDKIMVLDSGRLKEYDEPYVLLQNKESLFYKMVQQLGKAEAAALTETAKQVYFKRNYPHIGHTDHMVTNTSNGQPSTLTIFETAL

Sequence of Bile salt export pump (O95342 whole entry): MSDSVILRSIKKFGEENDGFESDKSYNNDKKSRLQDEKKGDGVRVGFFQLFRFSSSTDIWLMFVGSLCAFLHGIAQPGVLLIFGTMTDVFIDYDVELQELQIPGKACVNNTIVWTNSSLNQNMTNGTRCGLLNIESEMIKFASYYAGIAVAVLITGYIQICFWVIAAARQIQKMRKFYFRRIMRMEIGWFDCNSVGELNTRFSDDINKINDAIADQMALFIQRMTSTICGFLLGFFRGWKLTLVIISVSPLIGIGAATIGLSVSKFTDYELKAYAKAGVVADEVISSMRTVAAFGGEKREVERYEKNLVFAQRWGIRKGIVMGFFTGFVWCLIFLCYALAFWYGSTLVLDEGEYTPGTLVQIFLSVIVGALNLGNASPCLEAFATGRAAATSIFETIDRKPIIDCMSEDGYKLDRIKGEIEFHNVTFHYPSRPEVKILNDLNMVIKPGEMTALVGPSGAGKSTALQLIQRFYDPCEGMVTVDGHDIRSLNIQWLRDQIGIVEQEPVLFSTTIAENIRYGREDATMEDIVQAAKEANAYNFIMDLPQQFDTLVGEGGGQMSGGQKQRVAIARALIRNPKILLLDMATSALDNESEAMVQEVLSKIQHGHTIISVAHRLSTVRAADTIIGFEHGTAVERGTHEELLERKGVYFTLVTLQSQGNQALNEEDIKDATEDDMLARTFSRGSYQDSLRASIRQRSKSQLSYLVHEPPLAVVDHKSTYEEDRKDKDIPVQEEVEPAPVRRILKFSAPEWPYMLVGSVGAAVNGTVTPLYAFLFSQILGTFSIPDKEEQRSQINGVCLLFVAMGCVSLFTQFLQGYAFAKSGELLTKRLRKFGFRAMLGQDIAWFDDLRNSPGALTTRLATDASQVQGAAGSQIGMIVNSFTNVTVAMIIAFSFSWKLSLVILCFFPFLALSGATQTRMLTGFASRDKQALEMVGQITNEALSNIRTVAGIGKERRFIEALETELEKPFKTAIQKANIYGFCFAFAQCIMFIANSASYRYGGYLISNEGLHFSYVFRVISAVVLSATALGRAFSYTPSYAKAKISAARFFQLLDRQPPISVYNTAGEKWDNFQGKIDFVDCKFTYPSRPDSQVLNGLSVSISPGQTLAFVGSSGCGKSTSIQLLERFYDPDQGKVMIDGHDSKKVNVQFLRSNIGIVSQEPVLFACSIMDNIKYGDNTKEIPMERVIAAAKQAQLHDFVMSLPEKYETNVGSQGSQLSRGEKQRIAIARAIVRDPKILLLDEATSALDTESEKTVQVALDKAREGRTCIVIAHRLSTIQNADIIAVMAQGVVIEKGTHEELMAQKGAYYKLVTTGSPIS
Sequence of ATP-binding cassette sub-family C member 2 (Q92887 whole entry): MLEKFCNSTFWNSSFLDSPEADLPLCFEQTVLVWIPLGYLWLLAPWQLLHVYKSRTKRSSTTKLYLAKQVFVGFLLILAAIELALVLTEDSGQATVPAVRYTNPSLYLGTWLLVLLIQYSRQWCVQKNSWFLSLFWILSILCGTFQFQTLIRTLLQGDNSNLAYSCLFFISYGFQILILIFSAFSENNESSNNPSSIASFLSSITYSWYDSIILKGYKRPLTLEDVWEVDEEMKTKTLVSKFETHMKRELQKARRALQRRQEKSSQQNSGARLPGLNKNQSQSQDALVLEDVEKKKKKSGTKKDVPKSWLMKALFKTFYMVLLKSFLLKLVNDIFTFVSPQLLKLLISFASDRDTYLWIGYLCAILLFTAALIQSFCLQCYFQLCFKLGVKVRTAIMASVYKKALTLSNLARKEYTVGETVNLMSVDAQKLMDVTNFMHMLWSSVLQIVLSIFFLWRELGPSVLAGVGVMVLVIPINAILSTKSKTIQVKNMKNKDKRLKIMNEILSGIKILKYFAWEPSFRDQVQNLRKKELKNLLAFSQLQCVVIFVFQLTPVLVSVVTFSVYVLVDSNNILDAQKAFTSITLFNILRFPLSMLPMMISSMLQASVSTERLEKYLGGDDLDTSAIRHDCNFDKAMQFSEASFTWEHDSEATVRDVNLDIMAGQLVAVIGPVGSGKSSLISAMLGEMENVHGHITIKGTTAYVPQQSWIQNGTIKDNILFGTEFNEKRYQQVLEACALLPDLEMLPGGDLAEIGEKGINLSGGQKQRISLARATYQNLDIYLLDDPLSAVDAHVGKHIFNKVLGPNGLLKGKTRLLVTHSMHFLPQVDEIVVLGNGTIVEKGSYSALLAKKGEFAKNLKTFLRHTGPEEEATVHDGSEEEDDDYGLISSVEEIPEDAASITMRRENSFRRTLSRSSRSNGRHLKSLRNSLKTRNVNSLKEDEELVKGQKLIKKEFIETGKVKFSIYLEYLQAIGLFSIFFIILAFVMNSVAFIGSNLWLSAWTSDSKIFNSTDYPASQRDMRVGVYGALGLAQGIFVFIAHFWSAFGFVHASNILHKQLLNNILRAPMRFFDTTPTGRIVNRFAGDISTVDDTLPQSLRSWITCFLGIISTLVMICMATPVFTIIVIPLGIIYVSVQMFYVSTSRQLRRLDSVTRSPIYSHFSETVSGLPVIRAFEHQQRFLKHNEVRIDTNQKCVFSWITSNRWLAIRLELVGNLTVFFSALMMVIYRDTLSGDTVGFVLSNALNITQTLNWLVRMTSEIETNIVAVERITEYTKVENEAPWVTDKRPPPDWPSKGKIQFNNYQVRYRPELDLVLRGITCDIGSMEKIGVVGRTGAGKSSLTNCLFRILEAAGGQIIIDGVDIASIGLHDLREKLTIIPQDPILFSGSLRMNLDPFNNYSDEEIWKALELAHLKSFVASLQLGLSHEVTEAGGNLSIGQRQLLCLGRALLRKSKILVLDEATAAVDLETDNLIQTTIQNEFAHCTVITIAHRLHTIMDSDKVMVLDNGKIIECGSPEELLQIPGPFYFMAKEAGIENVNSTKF
Sequence of ATP-binding cassette sub-family C member 3 (O15438 whole entry): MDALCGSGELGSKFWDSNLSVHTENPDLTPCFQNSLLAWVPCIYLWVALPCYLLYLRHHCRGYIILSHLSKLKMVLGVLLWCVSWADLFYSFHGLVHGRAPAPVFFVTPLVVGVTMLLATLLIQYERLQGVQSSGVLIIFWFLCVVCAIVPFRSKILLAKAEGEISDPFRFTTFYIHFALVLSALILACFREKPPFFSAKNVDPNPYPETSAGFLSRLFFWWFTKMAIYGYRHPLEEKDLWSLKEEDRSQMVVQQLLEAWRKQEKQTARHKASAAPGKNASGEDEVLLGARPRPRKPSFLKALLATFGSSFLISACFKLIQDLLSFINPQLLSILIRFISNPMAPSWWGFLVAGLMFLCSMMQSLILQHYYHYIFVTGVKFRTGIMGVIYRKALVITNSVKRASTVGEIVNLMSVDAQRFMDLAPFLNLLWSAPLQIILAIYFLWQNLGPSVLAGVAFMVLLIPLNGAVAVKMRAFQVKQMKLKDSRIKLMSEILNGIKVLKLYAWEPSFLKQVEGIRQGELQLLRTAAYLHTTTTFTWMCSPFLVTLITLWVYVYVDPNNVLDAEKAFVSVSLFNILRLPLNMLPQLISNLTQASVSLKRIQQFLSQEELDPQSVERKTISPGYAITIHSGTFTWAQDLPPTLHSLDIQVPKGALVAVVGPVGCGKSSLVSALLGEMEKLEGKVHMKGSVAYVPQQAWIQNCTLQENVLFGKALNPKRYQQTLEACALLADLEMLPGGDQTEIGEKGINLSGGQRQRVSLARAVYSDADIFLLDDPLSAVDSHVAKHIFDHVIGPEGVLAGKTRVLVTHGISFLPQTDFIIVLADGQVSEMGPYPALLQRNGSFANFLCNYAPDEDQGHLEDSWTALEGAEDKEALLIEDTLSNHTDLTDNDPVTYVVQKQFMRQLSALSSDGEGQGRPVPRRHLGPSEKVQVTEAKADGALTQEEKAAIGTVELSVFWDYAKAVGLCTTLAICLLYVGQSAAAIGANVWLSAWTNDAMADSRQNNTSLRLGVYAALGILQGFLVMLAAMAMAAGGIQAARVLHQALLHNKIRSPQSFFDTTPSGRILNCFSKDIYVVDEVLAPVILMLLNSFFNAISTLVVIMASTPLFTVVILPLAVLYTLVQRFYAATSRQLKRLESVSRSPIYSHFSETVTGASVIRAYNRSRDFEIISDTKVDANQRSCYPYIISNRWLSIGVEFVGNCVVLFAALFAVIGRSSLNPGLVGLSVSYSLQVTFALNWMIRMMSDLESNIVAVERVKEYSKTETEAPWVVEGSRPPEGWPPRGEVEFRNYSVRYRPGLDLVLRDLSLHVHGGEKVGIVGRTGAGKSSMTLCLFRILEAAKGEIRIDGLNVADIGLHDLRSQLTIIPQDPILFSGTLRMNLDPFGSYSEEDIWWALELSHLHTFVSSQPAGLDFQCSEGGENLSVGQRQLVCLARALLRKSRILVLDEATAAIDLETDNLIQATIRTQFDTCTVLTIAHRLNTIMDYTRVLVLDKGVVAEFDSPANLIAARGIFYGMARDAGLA

Compound | IC50 [1] [µM] | IC50 [2] [µM] | IC50 [3] [µM] | IC50 [4] [µM]
CC(C)[C@H]1CC[C@H](C(=O)N[C@H](Cc2ccccc2)C(=O)O)CC1 [NATEGLINIDE] | > 133 | > 133 | 104 | > 133
CC(=O)Oc1ccc(C(c2ccc(OC(C)=O)cc2)c2ccccn2)cc1 [BISACODYL] | > 133 | > 133 | > 133 | > 133
CCC(=O)O[C@@H]1CC(=O)O[C@H](C)C/C=C/C=C/[C@H](O)[C@H](C)C[C@H](CC=O)[C@H](O[C@@H]2O[C@H](C)[C@@H](O[C@H]3C[C@@](C)(O)[C@@H](OC(=O)CC)[C@H](C)O3)[C@H](N(C)C)[C@H]2O)[C@H]1OC [MIDECAMYCIN] | 14.3 | > 133 | > 133 | > 133
CNCCCN1c2ccccc2CCc2ccccc21 [DESIPRAMINE] | > 133 | > 133 | > 133 | > 133
CC(=O)Nc1ccc(O)cc1 [ACETAMINOPHEN] | > 133 | > 133 | > 133 | > 133
NC[C@H]1O[C@H](O[C@H]2[C@H](O)[C@@H](O[C@H]3O[C@H](CO)[C@@H](O)[C@H](N)[C@H]3O)[C@H](N)C[C@@H]2N)[C@H](N)C[C@@H]1O [TOBRAMYCIN] | > 133 | > 133 | > 133 | > 133
OC(CNCC(O)C1CCc2cc(F)ccc2O1)C1CCc2cc(F)ccc2O1 (configuration not stated) [NEBIVOLOL HYDROCHLORIDE] | > 133 | > 133 | > 133 | > 133
Cc1cccc(N(C)C(=S)Oc2ccc3ccccc3c2)c1 [TOLNAFTATE] | > 133 | > 133 | > 133 | > 133
c1cc(CN2CCCNCCNCCCNCC2)ccc1CN1CCCNCCNCCCNCC1 [PLERIXAFOR] | > 133 | > 133 | > 133 | > 133
S=C=Nc1cccc2ccccc12 [1-NAPHTHYLISOTHIOCYANATE] | 69 | > 133 | > 133 | > 133
OCc1cc(C(O)CNCCCCCCOCCCCc2ccccc2)ccc1O (configuration not stated) [SALMETEROL XINAFOATE] | > 133 | > 133 | > 133 | > 133
[H]/N=C(/N)N/C(=N/[H])NCCc1ccccc1 [PHENFORMIN] | > 133 | > 133 | > 133 | > 133
CCN(C(C)=O)c1cccc(-c2ccnc3c(C#N)cnn23)c1 [ZALEPLON] | > 133 | > 133 | > 133 | > 133
C=C1CC[C@@]2(O)[C@H]3Cc4ccc(O)c5c4[C@@]2(CCN3CC2CC2)[C@H]1O5 | > 133 | > 133 | > 133 | > 133
O=C1CN=C(c2ccccc2)c2cc([N+](=O)[O-])ccc2N1 [NITRAZEPAM] | > 133 | > 133 | > 133 | > 133
SPIRAMYCIN | > 133 | > 133 | > 133 | > 133
NC(=O)CC[C@@H]1NC(=O)[C@H](Cc2ccccc2)NC(=O)[C@H](Cc2ccc(O)cc2)NC(=O)CCSSC[C@@H](C(=O)N2CCC[C@H]2C(=O)N[C@H](CCCN=C(N)N)C(=O)NCC(N)=O)NC(=O)[C@H](CC(N)=O)NC1=O [DESMOPRESSIN ACETATE] | > 133 | > 133 | > 133 | > 133
Cc1cccc(Nc2ccccc2C(=O)O)c1C [MEFENAMIC ACID] | > 133 | > 133 | > 133 | > 133
O=C1NCCN1CCN1CCC(c2cn(-c3ccc(F)cc3)c3ccc(Cl)cc23)CC1 [SERTINDOLE] | 82.7 | > 133 | > 133 | > 133

Compound | IC50 [1] [µM] | IC50 [2] [µM] | IC50 [3] [µM] | IC50 [4] [µM]
CN1CCN(c2c(F)cc3c(=O)c(C(=O)O)cn(CCF)c3c2F)CC1 [FLEROXACIN] | > 133 | > 133 | > 133 | > 133
Cn1c(=O)n(-c2ccc(C(C)(C)C#N)cc2)c2c3cc(-c4cnc5ccccc5c4)ccc3ncc21 [DACTOLISIB] | 7.9 | > 133 | > 133 | > 133
Cc1ccc(C(=O)Nc2ccc(S(=O)(=O)O)c3cc(S(=O)(=O)O)cc(S(=O)(=O)O)c23)cc1NC(=O)c1cccc(NC(=O)Nc2cccc(C(=O)Nc3cc(C(=O)Nc4ccc(S(=O)(=O)O)c5cc(S(=O)(=O)O)cc(S(=O)(=O)O)c45)ccc3C)c2)c1 [SURAMIN] | > 133 | 36.8 | > 133 | > 133
C[C@@H]1CCC[C@H](C)N1NC(=O)c1ccc(Cl)c(S(N)(=O)=O)c1 [CLOPAMIDE] | > 133 | > 133 | > 133 | > 133
CN(C)CCC[C@@]1(c2ccc(F)cc2)OCc2cc(C#N)ccc21 [ESCITALOPRAM OXALATE] | > 133 | > 133 | > 133 | > 133
COc1ccc(CC2c3cc(OC)c(OC)cc3CC[N+]2(C)CCC(=O)OCCCCCOC(=O)CC[N+]2(C)CCc3cc(OC)c(OC)cc3C2Cc2ccc(OC)c(OC)c2)cc1OC (configuration not stated) [ATRACURIUM BESYLATE] | > 133 | > 133 | > 133 | > 133
Cc1ccc(-c2cc(C(F)(F)F)nn2-c2ccc(S(N)(=O)=O)cc2)cc1 [CELECOXIB] | > 133 | > 133 | > 133 | > 133
O=C(CC(=O)C(F)(F)F)c1cccs1 | > 133 | > 133 | > 133 | > 133
Nc1nc2c(ncn2COCCO)c(=O)[nH]1 [ACYCLOVIR] | > 133 | > 133 | > 133 | > 133
CCCN[C@H]1CCc2nc(N)sc2C1 [PRAMIPEXOLE] | > 133 | > 133 | > 133 | > 133
COc1ccc(Cl)cc1[C@]1(F)C(=O)Nc2cc(C(F)(F)F)ccc21 [FLINDOKALNER] | > 133 | > 133 | > 133 | > 133
O=P1(NCCCl)OCCCN1CCCl (configuration not stated) [IFOSFAMIDE] | > 133 | > 133 | > 133 | > 133
Cc1ccnc2c1NC(=O)c1cccnc1N2C1CC1 [NEVIRAPINE] | > 133 | > 133 | > 133 | > 133
CCOC(=O)C1=C[C@@H](OC(CC)CC)[C@H](NC(C)=O)[C@@H](N)C1 [OSELTAMIVIR PHOSPHATE] | > 133 | > 133 | > 133 | > 133
CC(C)NNC(=O)c1ccncc1 [IPRONIAZID] | > 133 | > 133 | > 133 | > 133
Oc1ccc2c(c1)[C@@]13CCCC[C@@]1(O)[C@@H](C2)N(CC1CCC1)CC3 [BUTORPHANOL] | > 133 | > 133 | > 133 | > 133
C#C[C@]1(O)CC[C@H]2[C@@H]3CCC4=CC(=O)CC[C@@H]4[C@H]3CC[C@@]21CC [LEVONORGESTREL] | > 133 | > 133 | > 133 | > 133
CO/N=C(\C(=O)N[C@@H]1C(=O)N2C(C(=O)O)=C(CSc3nc(=O)c(=O)[nH]n3C)CS[C@H]12)c1csc(N)n1 | > 133 | > 133 | > 133 | 35.6
CC(C)(C)NCC(O)COc1cccc2c1CC(O)C(O)C2 (configuration not stated) [NADOLOL] | > 133 | > 133 | > 133 | > 133
